{"source": "patent US20190151350A1", "about": "“DEPOLYMERIZED HOLOTHURIAN GLYCOSAMINOGLYCAN COMPOSITION AND PREPARATION METHOD AND APPLICATION THEREOF” (Suzhou Yi-hua Biomedical Technology co., Ltd, priority 2017, published 2019)", "test_system": "4T1 murine mammary carcinoma", "assay": "Orthotopic 4T1 murine mammary carcinoma model, lung metastasis", "type": "in vivo, BALB/C mice", "protocol": "4T1 cells are cultured with RPMI-1640 culture solution, wherein the concentration of added fetal calf serum is 10%, a penicillin/streptomycin double-antibody is diluted in the culture solution based on the ratio of 1:100, and the cells are cultured in a thermostatic incubator which contains 5% CO2 and has a saturation temperature of 37° C. The cells are subjected to passage every other 2-3 days based on the ratio of 1:3-1:5. BALB/C mice are randomly divided into 7 groups, and a fourth fat pad of the breast is inoculated with 1×10^5 4 T1 cells. Then 20 mg/kg, 40 mg/kg and 80 mg/kg […] and 4 mg/kg dalteparin are injected to each group respectively. Mice were observed daily. Body weights and tumor volumes were recorded three times per week during the experiment. Breast tumors are removed after continuous administration for 12 days, and then 4 mg/kg cisplatin is […] to each group from the 13th thy, once in every four days. On the 30th day, anesthesia is conducted, the mice are sacrificed, lungs and spleens are taken out, washed and weighted. Photos were taken and lung samples were fixed in 10% neutral for metastatic nodule count and HE staining", "key": {"[1]": {"settings": "cisplatin alone or combined with dHG10092, compared with negative control group"}}}
{"compound": "N.N.[Cl][Pt][Cl]", "note": "[Cisplatin]", "values": [{"measurement": "body weight", "setting": "cisplatin 4 mg/kg, alone or in a combination", "result": "can cause weight reduction"}, {"measurement": "lung weight", "setting": "[1]", "result": "much lower"}, {"measurement": "spleen weight", "setting": "[1]", "result": "much lower"}, {"measurement": "lung tumor area range (HE staining)", "setting": "cisplatin independently or with dHG10092", "result": "remarkably reduce the lung tumor area range"}]}
